{
  "source": "patent US20250064773A1",
  "about": "“TARGETING ERO1 ALPHA WITH AURONE DERIVATIVES” (West Virginia University Board of Governors on behalf of …, priority 2021, published 2025)",
  "key": {"purified human ERO1α": {"target": "T1, purified human ERO1α (Homo sapiens, UniProt Q96HE7, C104A/C131A/C166A)", "T1 construct": "made in house", "T1 sequence (Q96HE7 22-468 C104A/C131A/C166A)": "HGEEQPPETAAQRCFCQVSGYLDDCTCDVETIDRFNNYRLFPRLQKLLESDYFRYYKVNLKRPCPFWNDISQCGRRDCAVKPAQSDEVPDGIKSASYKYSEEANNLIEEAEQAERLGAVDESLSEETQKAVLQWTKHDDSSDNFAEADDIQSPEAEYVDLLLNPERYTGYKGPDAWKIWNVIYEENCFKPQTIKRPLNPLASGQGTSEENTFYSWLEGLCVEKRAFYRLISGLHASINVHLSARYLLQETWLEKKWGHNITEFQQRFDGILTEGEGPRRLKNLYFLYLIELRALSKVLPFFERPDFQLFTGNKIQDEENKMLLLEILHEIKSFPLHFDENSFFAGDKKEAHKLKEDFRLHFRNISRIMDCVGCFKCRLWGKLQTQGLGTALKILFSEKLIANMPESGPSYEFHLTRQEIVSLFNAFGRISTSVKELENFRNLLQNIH", "assay": "Recombinant ERO1α enzyme assay (Amplex Red)", "format": "biochemical", "conditions": "ratio of enzyme IC50 values", "protocol": "Based on previous work which established an aurone chemical class of compounds as FAD containing enzyme inhibitors^37, we evaluated sulfuretin analogs for ERO1α enzyme inhibition.\nQuantification of enzymatic activity of ERO1α was performed using the Amplex Red as previously described^6."}, "LSD-1": {"target": "LSD-1 (Homo sapiens, UniProt O60341)", "assay": "Cellular thermal shift assay (CETSA) in PC-9 cells, LSD-1", "format": "cell-based", "conditions": "100 μM", "from_the_text": "To date activity of T151742 towards other flavoenzymes has not been identified at this time. We utilized the Cellular Thermal Shift Assay (CETSA) to determine target engagement of T151742 in vitro using the non-small cell lung cancer (NSCLC) cell line PC-9. The EGFR driven PC-9 cell line was chosen as new treatment strategies are needed in EGFR driven NSCLC as most patients relapse and become resistant to current targeted therapies with development of further mutations such as T790M, C797S as well as emergence of EGFR independent tumors^42, 43. […] First, we determined the aggregation temperature (Tagg) of ERO1α, ERO1β, and LSD-1, which are all FAD dependent enzymes and potential in vitro targets of T15742. […]\nUpon addition of T151742, Tagg was quantified for ERO1α, ERO1β, and LSD-1. Quantification of the average of n=3 independent experiments based on western blot analysis for ERO1α, ERO1β, and LSD-1. […] Cellular viability was determined by MTT assay. n=3 independent experiments performed in quadruplicates. ****p<0.0001; by two-way ANOVA.\nCell Lines: PC-9 cell line used was obtained from Sigma Aldrich and grown in RPMI 1640 medium with 10% fetal bovine serum and 1% penicillin/streptomycin. […] Plate was then read on the BioTek Cytation 5 at 530/590 nm. […]"}},
  "data": [
    {"smiles": "CN(C)c1ccc(/C=C2\\Oc3cc(O)ccc3C2=O)cc1", "note": "[Compound T151742]", "values": [
      {"measurement": "fold more potent compared to EN-460", "setting": "purified human ERO1α", "value": "approximately 2 fold"},
      {"measurement": "change of Tagg for LSD-1", "setting": "LSD-1", "value": "did not change"}
    ]}
  ]
}
